Data taken from US8058455B2, “Compound signamycin, method for production thereof, and use thereof” (priority 2008, dated 2011).
pIC50: −log10 of the molar value. In brackets after ≈: the same amount, converted by molar mass.

Assays:
[1] = target: T1, YycG of Bacillus subtilis 168 strain (YycG-204-611) (Bacillus subtilis, UniProt Q45614); assay: YycG histidine kinase activity inhibitory test; type: biochemical; conditions: YycG-204-611, [γ-32P]ATP, 30° C.
T1 construct: a region containing the 204th amino acid to the 611th amino acid from the N-terminus; made in house; host or cells: Escherichia coli
Procedure: Signamycin A and signamycin B were measured for enzyme inhibitory activity against YycG of Bacillus subtilis 168 strain (B. subtilis 168).
(§1) The histidine kinase activity was measured according to the method reported in Biosci. Biotechnol. Biochem., 64, 919-923, 2000.
(§2) A DNA fragment encoding a region containing only the kinase activity domain of YycG (i.e., a region containing the 204th amino acid to the 611th amino acid from the N-terminus) was prepared through PCR from the chromosomal DNA of the Bacillus subtilis 168 strain, and was cloned into the expression vector pET21a (+). The thus-obtained plasmid pET-yycGtru was used to transform Escherichia coli cells. The culture liquid of the thus-transformed strain was treated to purify a protein expressing only the histidine kinase activity domain of YycG (YycG-204-611).
The reaction solution having the following formulation was used for measuring histidine kinase activity: 0.5 μM YycG-204-611, 50 mM Tris-HCl (pH 8.5), 100 mM KCl, 100 mM NH4Cl and 5 mM MgCl2. A 2.5 μM ATP-10 μCi [γ-^32P]ATP mixture was added to the reaction solution to initiate the reaction so that the total amount was adjusted to 10 μL. The resultant mixture was incubated at 30° C. for 10 min. After termination of the reaction, SDS-polyacrylamide gel electrophoresis was performed. […]

[2] = tested on: Staphylococcus aureus (S. aureus); assay: Antimicrobial activity, summary in words for the species; type: cell-based; conditions: summary of Table 1
Procedure: (§3) According to the standard method of Japanese Society of Chemotherapy, signamycin A and signamycin B were measured for antimicrobial spectrum against various microorganisms including drug-resistant bacteria (methicilline resistant bacteria and vancomycin resistant bacteria) on the Muller Hinton agar medium by the multiple dilution method.

B. cereus ATCC 10702 = assay: Antimicrobial activity (MIC), agar multiple dilution method; type: cell-based; conditions: Bacillus cereus, ATCC10702, Muller Hinton agar, 37° C., 18 hrs.
Procedure: as §3

S. aureus MS16526 (MRSA) = assay: as above; type: cell-based; conditions: Staphylococcus aureus, 18 h
Procedure: as §3

[3] = tested on: E. faecalis NCTC 12201 (VRE, vanA); assay: as above; type: cell-based; conditions: Enterococcus faecalis, 18 h
Procedure: as §3

M. luteus IFO 3333 = assay: as above; type: cell-based; conditions: Micrococcus luteus, IFO3333, Muller Hinton agar, 37° C., 18 hrs.
Procedure: as §3

[4] = tested on: E. faecalis NCTC 12203 (VRE, vanA); assay: as above; type: cell-based; conditions: Enterococcus faecalis, 18 h
Procedure: as §3

[5] = tested on: S. aureus TY-04282 (MRSA); assay: as above; type: cell-based; conditions: Staphylococcus aureus, 18 h
Procedure: as §3

B. subtilis PCI 219 = assay: as above; type: cell-based; conditions: Bacillus subtilis, PCI219, Muller Hinton agar, 37° C., 18 hrs.
Procedure: as §3

[6] = tested on: E. faecium NTCTC 12204 (VRE, vanA); assay: as above; type: cell-based; conditions: Enterococcus faecium, 18 h
Procedure: as §3

[7] = tested on: Pseudomonasu aeruginosa A3; assay: as above; type: cell-based; conditions: 18 h
Procedure: as §3

Escherichia coli NIHJ = assay: as above; type: cell-based; conditions: Muller Hinton agar, 37° C., 18 hrs.
Procedure: as §3

[8] = tested on: E. faecium NCTC 12202 (VRE, vanA); assay: as above; type: cell-based; conditions: Enterococcus faecium, 18 h
Procedure: as §3

[9] = tested on: Enterococcus faecalis JCM 5803; assay: as above; type: cell-based; conditions: JCM5803, Muller Hinton agar, 37° C., 18 hrs.
Procedure: as §3

[10] = tested on: Corynebacterium bovis 1810; assay: as above; type: cell-based; conditions: Muller Hinton agar, 37° C., 18 hrs.
Procedure: as §3

[11] = tested on: S. aureus MRSA No. 5 (MRSA); assay: as above; type: cell-based; conditions: Staphylococcus aureus, 18 h
Procedure: as §3

[12] = tested on: S. aureus MRSA No. 17 (MRSA); assay: as above; type: cell-based; conditions: Staphylococcus aureus, 18 h
Procedure: as §3

S. aureus MS9610 (MDR) = assay: as above; type: cell-based; conditions: Staphylococcus aureus, 18 h
Procedure: as §3

[13] = tested on: Mycobacterium smegmatis ATCC607; assay: as above; type: cell-based; conditions: Mycolicibacterium smegmatis, Muller Hinton agar, 37° C. 42 hrs.
Procedure: as §3

M. luteus PCI 1001 = assay: as above; type: cell-based; conditions: Micrococcus luteus, PCI1001, Muller Hinton agar, 37° C., 18 hrs.
Procedure: as §3

E. faecium JCM 5804 = assay: as above; type: cell-based; conditions: Enterococcus faecium, JCM5804, Muller Hinton agar, 37° C., 18 hrs.
Procedure: as §3

[14] = tested on: Micrococcus luteus FDA 16; assay: as above; type: cell-based; conditions: FDA16, Muller Hinton agar, 37° C., 18 hrs.
Procedure: as §3

[15] = tested on: Bacillus subtilis NRRL B-558; assay: as above; type: cell-based; conditions: NRRLB558, Muller Hinton agar, 37° C., 18 hrs.
Procedure: as §3

[16] = tested on: Staphylococcus aureus FDA 209P; assay: as above; type: cell-based; conditions: FDA209P, Muller Hinton agar, 37° C., 18 hrs.
Procedure: as §3

S. aureus Smith = assay: as above; type: cell-based; conditions: Staphylococcus aureus, Muller Hinton agar, 37° C., 18 hrs.
Procedure: as §3

[17] = target: VicK of caries bacteria (VicK-31-450) (Streptococcus mutans, UniProt Q8DT64); assay: VicK histidine kinase activity inhibitory test; type: biochemical; conditions: VicK-31-450, [32P]ATP, 25° C.
Procedure: Signamycin A and signamycin B were measured for enzyme inhibitory activity against VicK of caries bacteria (Streptococcus mutans).
The histidine kinase activity was measured by a modified method of the method reported in Biosci. Biotechnol. Biochem., 64, 919-923, 2000.
as §2, with “VicK” for “YycG”, “31th” for “204th”, “450th” for “611th”, “caries bacteria,” for “Bacillus subtilis 168 strain,”, “pET-SMvicK31-450” for “pET-yycGtru”, “VicK (VicK-31-450).” for “YycG (YycG-204-611).”
The reaction solution having the following formulation was used for measuring histidine kinase activity: […] VicK-31-450, 50 mM Tris-HCl (pH 7.5), 50 mM KCl and 10 mM MgCl2. Signamycin A or signamycin B (1 μL) was added to the reaction solution (7 μl), followed by incubating at 25° C. for 5 min. Subsequently, 2 μL of 12.5 µM ATP containing [^32P]ATP was added to the reaction mixture (final concentration: […]) to initiate the reaction, followed by incubating at 25° C. for 20 min. […]

[18] = target: PehS of soft-rot bacteria MAFF301393 strain (PehS-209-484) (Pectobacterium carotovorum subsp. carotovorum, UniProt Q9ZIN8); assay: PehS histidine kinase activity inhibitory test; type: biochemical, Erwinia carotovora subsp. carotovora MAFF301393; conditions: for inhibitory activity against PehS (in words): summary of Table 2
Procedure: Signamycin A and signamycin B were measured for enzyme inhibitory activity against PehS of soft-rot bacteria MAFF301393 strain (Erwinia carotovora subsp. carotovora MAFF301393).
as §1
as §2, with “209th” for “204th”, “484th” for “611th”, “soft-rot bacteria MAFF301393” for “Bacillus subtilis 168”, “pET-pehScM2-2” for “pET-yycGtru”, “PehS (PehS-209-484).” for “YycG (YycG-204-611).”
The reaction solution having the following formulation was used for measuring histidine kinase activity: 4 μM PehS-209-484, 50 mM Tris-HCl (pH 8.5), 100 mM KCl, 100 mM NH4Cl and 5 mM MgCl2. A 2.5 μM ATP-10 μCi [γ-^32P] ATP mixture was added to the reaction solution to initiate the reaction so that the total amount was adjusted to 10 μL. The resultant mixture was incubated at 30° C. for 20 min. After termination of the reaction, SDS-polyacrylamide gel electrophoresis was performed. For measuring inhibitory activity, signamycin A or signamycin B was added to the reaction solution before the addition of the ATP mixture so as to have a predetermined concentration, followed by incubating at 30° C. for 5 min, to thereby determine the 50% inhibitory concentration (IC50) with respect to PehS of soft-rot bacteria.

[19] = tested on: Enterococcus (E. faecalis and E. faecium); assay: Antimicrobial activity, summary in words for the genus; type: cell-based; conditions: summary of Table 1
Procedure: as §3

Chain of PehS of soft-rot bacteria MAFF301393 strain (PehS-209-484) (Q9ZIN8 entry or part of it): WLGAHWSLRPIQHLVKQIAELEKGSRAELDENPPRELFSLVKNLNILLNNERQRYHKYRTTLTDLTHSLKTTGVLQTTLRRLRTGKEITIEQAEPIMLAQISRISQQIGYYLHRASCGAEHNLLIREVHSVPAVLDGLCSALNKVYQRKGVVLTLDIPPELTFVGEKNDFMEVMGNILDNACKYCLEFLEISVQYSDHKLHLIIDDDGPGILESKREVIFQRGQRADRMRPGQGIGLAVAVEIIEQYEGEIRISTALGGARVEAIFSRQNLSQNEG
Chain of VicK of caries bacteria (VicK-31-450) (Q8DT64 entry or part of it): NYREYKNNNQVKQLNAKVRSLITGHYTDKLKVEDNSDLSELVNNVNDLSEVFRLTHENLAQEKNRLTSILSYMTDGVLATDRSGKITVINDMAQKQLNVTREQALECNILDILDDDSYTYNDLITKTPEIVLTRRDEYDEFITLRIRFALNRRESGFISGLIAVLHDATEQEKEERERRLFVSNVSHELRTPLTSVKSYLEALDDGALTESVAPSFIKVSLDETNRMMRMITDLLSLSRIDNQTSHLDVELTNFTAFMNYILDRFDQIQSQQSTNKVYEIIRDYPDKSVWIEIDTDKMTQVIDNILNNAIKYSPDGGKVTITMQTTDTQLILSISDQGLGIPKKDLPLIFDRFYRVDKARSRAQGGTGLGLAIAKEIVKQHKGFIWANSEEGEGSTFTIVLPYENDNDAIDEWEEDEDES
T1 sequence (Q45614 204-611): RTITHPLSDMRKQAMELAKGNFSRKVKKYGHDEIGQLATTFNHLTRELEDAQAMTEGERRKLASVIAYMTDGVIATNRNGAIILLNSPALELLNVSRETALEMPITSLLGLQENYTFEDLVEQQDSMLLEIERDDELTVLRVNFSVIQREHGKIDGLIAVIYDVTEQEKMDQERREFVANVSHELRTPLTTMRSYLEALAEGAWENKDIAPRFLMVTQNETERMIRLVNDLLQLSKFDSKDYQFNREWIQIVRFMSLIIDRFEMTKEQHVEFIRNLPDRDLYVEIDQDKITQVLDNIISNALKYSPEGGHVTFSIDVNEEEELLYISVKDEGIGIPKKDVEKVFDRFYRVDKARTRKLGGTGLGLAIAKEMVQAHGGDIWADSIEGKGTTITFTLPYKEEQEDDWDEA

Row | SMILES | pIC50 [1] | antimicrobial activity against Staphylococcus aureus (in words) [2] | MIC (B. cereus ATCC 10702) [µg/mL] | MIC (S. aureus MS16526 (MRSA)) [µg/mL] | MIC [3] [µg/mL] | MIC (M. luteus IFO 3333) [µg/mL] | MIC [4] [µg/mL] | MIC [5] [µg/mL] | MIC (B. subtilis PCI 219) [µg/mL] | MIC [6] [µg/mL] | MIC [7] [µg/mL] | MIC (Escherichia coli NIHJ) [µg/mL] | MIC [8] [µg/mL] | MIC [9] [µg/mL] | MIC [10] [µg/mL] | MIC [11] [µg/mL] | MIC [12] [µg/mL] | MIC (S. aureus MS9610 (MDR)) [µg/mL] | MIC [13] [µg/mL] | MIC (M. luteus PCI 1001) [µg/mL] | other results
1 | CCC1C(C)=CC2CC(C)C(O)C(CC)C2C1/C(O)=C1/C(=O)NC(C)C1=O (stereo not drawn) [Signamycin A, signamycin A] | 3.86 | high antimicrobial activity | 4 (≈ 10.7 µM) | 8 (≈ 21.3 µM) | 16 (≈ 42.6 µM) | 8 (≈ 21.3 µM) | 8 (≈ 21.3 µM) | 8 (≈ 21.3 µM) | 4 (≈ 10.7 µM) | 8 (≈ 21.3 µM) | > 100 | 32 (≈ 85.2 µM) | 16 (≈ 42.6 µM) | 16 (≈ 42.6 µM) | 8 (≈ 21.3 µM) | 8 (≈ 21.3 µM) | 8 (≈ 21.3 µM) | 8 (≈ 21.3 µM) | 32 (≈ 85.2 µM) | 8 (≈ 21.3 µM) | MIC (E. faecium JCM 5804): 8 µg/mL (≈ 21.3 µM); MIC [14]: 8 µg/mL (≈ 21.3 µM); MIC [15]: 4 µg/mL (≈ 10.7 µM); MIC [16]: 4 µg/mL (≈ 10.7 µM); MIC (S. aureus Smith): 8 µg/mL (≈ 21.3 µM); pIC50 [17]: 3.62; pIC50 [18]: 4.47; inhibitory activity against PehS (in words) [18]: strong inhibitory activity
2 | CCCC1C(C)=CC2CC(C)C(O)C(CC)C2C1/C(O)=C1/C(=O)NC(C)C1=O (stereo not drawn) [Signamycin B, signamycin B] | 4.37 | high antimicrobial activity | 2 (≈ 5.13 µM) | 4 (≈ 10.3 µM) | 8 (≈ 20.5 µM) | 4 (≈ 10.3 µM) | 8 (≈ 20.5 µM) | 4 (≈ 10.3 µM) | 4 (≈ 10.3 µM) | 8 (≈ 20.5 µM) | > 100 | 64 (≈ 164 µM) | 8 (≈ 20.5 µM) | 8 (≈ 20.5 µM) | 8 (≈ 20.5 µM) | 4 (≈ 10.3 µM) | 4 (≈ 10.3 µM) | 4 (≈ 10.3 µM) | 64 (≈ 164 µM) | 4 (≈ 10.3 µM) | antimicrobial activity against Enterococcus (in words) [19]: high antimicrobial activity; MIC (E. faecium JCM 5804): 8 µg/mL (≈ 20.5 µM); MIC [14]: 4 µg/mL (≈ 10.3 µM); MIC [15]: 4 µg/mL (≈ 10.3 µM); MIC [16]: 4 µg/mL (≈ 10.3 µM); MIC (S. aureus Smith): 4 µg/mL (≈ 10.3 µM); pIC50 [17]: 4.21; pIC50 [18]: 4.80; inhibitory activity against PehS (in words) [18]: strong inhibitory activity
